Experimental data taken from US20170050957A1, “4-AMINO-6-(HETEROCYCLIC)PICOLINATES AND 6-AMINO-2-(HETEROCYCLIC)PYRIMIDINE-4-CARBOXYLATES AND THEIR USE AS HERBICIDES” (Dow AgroSciences LLC, priority 2013, published 2017).
Read-outs that look alike come from different tables or passages of the source.

Experiments:
[1] = test system: Key Grass and Sedge Weeds as well as Grass Crops; assay: Post-emergent Test II herbicidal activity (Table 16); format: in vivo; settings: post-emergence, 336 h, 14 d; for pest or weed control at 35 g/ha: 35 g ai/ha; for pest or weed control at 70 g/ha: 70 g ai/ha; for pest or weed control at 140 g/ha: 140 g ai/ha
Method in brief: (§1)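 Herbicidal effect scored as percent visual injury, 14 d after post-emergent application. Spray solutions contained acetone, DMSO, isopropyl alcohol, crop oil concentrate and surfactant, applied at 187 L/ha to young plants (1-2 true leaves).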

[2] = test system: Key Broadleaf Weed and Crop Species; assay: Post-emergent Test II herbicidal activity (Table 15); format: in vivo; settings: post-emergence, 336 h, 14 d; for pest or weed control at 35 g/ha: 35 g ai/ha; for pest or weed control at 70 g/ha: 70 g ai/ha; for pest or weed control at 140 g/ha: 140 g ai/ha
Method in brief: as §1

[3] = Cyperus esculentus, yellow nutsedge (Cyperus esculentus), read-out: Visual Growth Reduction (%) 14 Days After Application, CYPES
[4] = Echinochloa crus-galli, barnyardgrass (Echinochloa crus-galli), read-out: Visual Growth Reduction (%) 14 Days After Application, ECHCG
[5] = Oryza sativa, rice (Oryza sativa), read-out: Visual Growth Reduction (%) 14 Days After Application, ORYSA
[6] = Setaria faberi, giant foxtail (Setaria faberi), read-out: Visual Growth Reduction (%) 14 Days After Application, SETFA
[7] = Triticum aestivum, wheat, spring (Triticum aestivum), read-out: Visual Growth Reduction (%) 14 Days After Application, TRZAS
[8] = Zea mays, maize, corn (Zea mays), read-out: Visual Growth Reduction (%) 14 Days After Application, ZEAMX
[9] = Abutilon theophrasti, velvetleaf (Abutilon theophrasti), read-out: Visual Growth Reduction (%) 14 Days After Application, ABUTH
[10] = Amaranthus retroflexus, redroot pigweed (Amaranthus retroflexus), read-out: Visual Growth Reduction (%) 14 Days After Application, AMARE
[11] = Brassica napus, oilseed rape, canola (Brassica napus), read-out: Visual Growth Reduction (%) 14 Days After Application, BRSNN
[12] = Chenopodium album, lambsquarters (Chenopodium album), read-out: Visual Growth Reduction (%) 14 Days After Application, CHEAL
[13] = Euphorbia heterophylla, wild poinsettia (Euphorbia heterophylla), read-out: Visual Growth Reduction (%) 14 Days After Application, EPHHL
[14] = Helianthus annuus, sunflower (Helianthus annuus), read-out: Visual Growth Reduction (%) 14 Days After Application, HELAN

Row | SMILES | pest or weed control at 35 g/ha [1, 3] [%] | pest or weed control at 70 g/ha [1, 3] [%] | pest or weed control at 140 g/ha [1, 3] [%] | pest or weed control at 35 g/ha [1, 4] [%] | pest or weed control at 70 g/ha [1, 4] [%] | pest or weed control at 140 g/ha [1, 4] [%] | pest or weed control at 35 g/ha [1, 5] [%] | pest or weed control at 70 g/ha [1, 5] [%] | pest or weed control at 140 g/ha [1, 5] [%] | pest or weed control at 35 g/ha [1, 6] [%] | pest or weed control at 70 g/ha [1, 6] [%] | pest or weed control at 140 g/ha [1, 6] [%] | pest or weed control at 35 g/ha [1, 7] [%] | pest or weed control at 70 g/ha [1, 7] [%] | pest or weed control at 140 g/ha [1, 7] [%] | pest or weed control at 35 g/ha [1, 8] [%] | pest or weed control at 70 g/ha [1, 8] [%] | pest or weed control at 140 g/ha [1, 8] [%] | pest or weed control at 35 g/ha [2, 9] [%] | pest or weed control at 70 g/ha [2, 9] [%] | also measured
1 | COc1c(C(=O)O)nc(-c2ccc3cc[nH]c3c2F)c(F)c1N [Compound 1.17] | 45 to 59 | 45 to 59 | 45 to 59 | 85 to 94 | 85 to 94 | 85 to 94 | 0 to 29 | 0 to 29 | 0 to 29 | 75 to 84 | 85 to 94 | 85 to 94 | 60 to 74 | 60 to 74 | 60 to 74 | 60 to 74 | 75 to 84 | 75 to 84 | 45 to 59 | 45 to 59 | pest or weed control at 140 g/ha [2, 9]: 60 to 74%; pest or weed control at 35 g/ha [2, 10]: 95 to 100%; pest or weed control at 70 g/ha [2, 10]: 95 to 100%; pest or weed control at 140 g/ha [2, 10]: 95 to 100%; pest or weed control at 35 g/ha [2, 11]: 95 to 100%; pest or weed control at 70 g/ha [2, 11]: 95 to 100%; pest or weed control at 140 g/ha [2, 11]: 95 to 100%; pest or weed control at 35 g/ha [2, 12]: 95 to 100%; pest or weed control at 70 g/ha [2, 12]: 95 to 100%; pest or weed control at 140 g/ha [2, 12]: 95 to 100%; pest or weed control at 35 g/ha [2, 13]: 95 to 100%; pest or weed control at 70 g/ha [2, 13]: 95 to 100%; pest or weed control at 140 g/ha [2, 13]: 95 to 100%; pest or weed control at 35 g/ha [2, 14]: 95 to 100%; pest or weed control at 70 g/ha [2, 14]: 95 to 100%; pest or weed control at 140 g/ha [2, 14]: 95 to 100%; melting point: 133 to 140 °C
2 | Nc1c(F)c(-c2ccc3occc3c2)nc(C(=O)O)c1Cl [Compound 2.02] | 0 to 29 | 0 to 29 | 0 to 29 | 85 to 94 | 85 to 94 | 95 to 100 | 0 to 29 | 0 to 29 | 0 to 29 | 60 to 74 | 60 to 74 | 75 to 84 | 0 to 29 | 30 to 44 | 45 to 59 | 95 to 100 | 95 to 100 | 95 to 100 | 45 to 59 | 85 to 94 | pest or weed control at 140 g/ha [2, 9]: 85 to 94%; pest or weed control at 35 g/ha [2, 10]: 75 to 84%; pest or weed control at 70 g/ha [2, 10]: 95 to 100%; pest or weed control at 140 g/ha [2, 10]: 95 to 100%; pest or weed control at 35 g/ha [2, 11]: 0 to 29%; pest or weed control at 70 g/ha [2, 11]: 30 to 44%; pest or weed control at 140 g/ha [2, 11]: 30 to 44%; pest or weed control at 35 g/ha [2, 12]: 95 to 100%; pest or weed control at 70 g/ha [2, 12]: 95 to 100%; pest or weed control at 140 g/ha [2, 12]: 95 to 100%; pest or weed control at 35 g/ha [2, 13]: 75 to 84%; pest or weed control at 70 g/ha [2, 13]: 95 to 100%; pest or weed control at 140 g/ha [2, 13]: 95 to 100%; pest or weed control at 35 g/ha [2, 14]: 75 to 84%; pest or weed control at 70 g/ha [2, 14]: 85 to 94%; pest or weed control at 140 g/ha [2, 14]: 95 to 100%; melting point: 165 to 167 °C
